pIC50: −log10 of the molar value. Counter-ions that a name gives are not always drawn. Some results are limits rather than exact numbers.

The target in assay [1] is T1, Pim-1 stably transfected into the U2OS human osteogenic sarcoma line (Homo sapiens, UniProt P11309).
T1 construct: expressed in transfected cells; host or cells: U2OS human osteogenic sarcoma line
Kind of assay: Pim cell assay, phospho-BAD normalized against total BAD, U2OS stably transfected with Pim-1. The assay is classed as cell-based. As to conditions: U2OS stably transfected with Pim-1; phospho-BAD normalized against total BAD; 29 min incubation; read-out: Pim1_Cell_IC50_. In a few lines: (§1)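 Read-out is phospho-BAD relative to total BAD, by MSD electrochemiluminescence on lysates, expressed as % phosphoprotein = (2×phospho)/(phospho+total)×100. Engineered U2OS lines carrying stably transfected Pim-1 or Pim-2 received 10-point compound dilutions at 0.3% final DMSO after overnight culture at 37 °C; DMSO-only wells served as high control.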

The target in assay [2] is T2, full length recombinant Pim-1 protein (Homo sapiens, UniProt P11309).
T2 construct: by full length recombinant Pim-1, Pim-2, or Pim-3 protein; hexahistidine tag followed by a thrombin cleavage site (N); made in house; host or cells: Sf9 (baculovirus) or E. coli (pET28)
Kind of assay: Pim-1 enzyme assay (HTRF, phosphorylation of biotinylated-BAD (S112) peptide). Type of assay: biochemical. As to conditions: read-out: Pim_1_IC50. The essentials:
(§2)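 Recombinant full-length Pim-1 or Pim-2 was incubated with biotinylated BAD (S112) peptide in pH 7.0 Hepes buffer with BSA and DTT. After an EDTA stop, phosphopeptide was quantified by time-resolved FRET between a europium antibody and streptavidin-APC, and IC50 values came from 4-parameter logistic curves.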
A general note: TR-FRET usually uses a lanthanide donor and a delayed reading to cut background.

Assay [3] deals with T3, full length recombinant Pim-2 protein (Homo sapiens, UniProt Q9P1W9).
T3 construct: by full length recombinant Pim-1, Pim-2, or Pim-3 protein; hexahistidine tag followed by a thrombin cleavage site (N); made in house; host or cells: Sf9 (baculovirus) or E. coli (pET28)
In words: Pim-2 enzyme assay (HTRF, phosphorylation of biotinylated-BAD (S112) peptide). The assay is classed as biochemical. As to conditions: read-out: Pim2_IC50. In a few lines:
as §2

A further assay concerns KMS-Cell. Kind of assay: KMS cell IC50 (Table 4). Type of assay: cell-based. As to conditions: KMS cells.
For assay [4], the target named is T4, Pim-2 stably transfected into the U2OS human osteogenic sarcoma line (Homo sapiens, UniProt Q9P1W9).
T4 construct: expressed in transfected cells; host or cells: U2OS human osteogenic sarcoma line
Kind of assay: Pim cell assay, phospho-BAD normalized against total BAD, U2OS stably transfected with Pim-2. Particulars: U2OS stably transfected with Pim-2; phospho-BAD normalized against total BAD; 29 min incubation; read-out: Pim2_Cell_IC50_. The assay is classed as cell-based. In a few lines:
as §1

T1 sequence (P11309 whole entry): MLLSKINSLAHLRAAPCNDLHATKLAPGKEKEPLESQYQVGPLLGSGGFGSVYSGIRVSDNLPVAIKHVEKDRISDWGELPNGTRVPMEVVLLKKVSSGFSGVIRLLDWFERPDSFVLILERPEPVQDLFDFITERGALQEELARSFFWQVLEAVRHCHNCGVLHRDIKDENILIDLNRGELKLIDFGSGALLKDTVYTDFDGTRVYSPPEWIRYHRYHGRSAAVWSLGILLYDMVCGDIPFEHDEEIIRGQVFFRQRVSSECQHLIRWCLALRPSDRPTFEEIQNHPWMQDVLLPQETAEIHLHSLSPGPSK
T2 sequence (P11309 whole entry): as above
T3 sequence (Q9P1W9 whole entry): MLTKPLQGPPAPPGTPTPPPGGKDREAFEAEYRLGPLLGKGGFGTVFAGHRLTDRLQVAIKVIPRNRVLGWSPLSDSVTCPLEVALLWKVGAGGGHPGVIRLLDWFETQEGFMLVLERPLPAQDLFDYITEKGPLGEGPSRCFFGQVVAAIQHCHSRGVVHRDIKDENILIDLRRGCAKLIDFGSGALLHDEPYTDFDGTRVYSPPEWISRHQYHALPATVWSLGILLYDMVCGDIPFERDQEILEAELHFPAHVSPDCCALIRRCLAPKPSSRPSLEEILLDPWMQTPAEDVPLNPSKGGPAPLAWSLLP
T4 sequence (Q9P1W9 whole entry): as above

With `COC(=O)c1ccc2[nH]nc(-c3ccnc(NC4CCNCC4)n3)c2c1` [Example 489], the pIC50 in assay [1] is 6.69; in assay [2] it was 8.70; in assay [3], 8.52; with KMS-Cell, 5.77; in assay [4], 5.35.
The corresponding values for `CN(C)c1nc(-c2c[nH]c3ccc(-c4cncc(C5CC5)n4)cc23)cc(=O)[nH]1` [Example 527] are 6.45, 7.89, 7.10, below 4.80 and below 4.50.
As for `c1cc2[nH]nc(-c3cncc(OC4CCNCC4)n3)c2cc1-c1cncc(C2CC2)n1` [Example 364, 5-(6-cyclopropyl-2-pyrazinyl)-3-(6-(4-piperidinyloxy)-2-pyrazinyl)-1H-indazole], the pIC50 in assay [1] is 7.66; in assay [3] it was 8.30; with KMS-Cell, 5.23; in assay [4], 5.46.
For the compound `O=c1cc(-c2n[nH]c3ccc(-c4ccc(Cl)cc4F)cc23)nc(O[C@@H]2CNCC[C@H]2F)[nH]1` (racemic) [Example 283, 6-(5-(4-chloro-2-fluorophenyl)-1H-indazol-3-yl)-2-((trans-4-fluoropiperidin-3-yl)oxy)pyrimidin-4(3H)-one trifluoroacetate], the figures for the pIC50 (in assay [2]; in assay [3]; in the assay on KMS-Cell) were 8.70, 9.00 and 5.72, respectively.
On the same counts, the results for `Cc1nc(-c2cccc(-c3ccc4[nH]cc(-c5cncc(O[C@@H]6CCCNC6)n5)c4c3)c2)cs1` [Example 357] are 7.89, 6.75 and below 4.50.
Regarding `CC(C)C1CCNCC1Oc1cncc(-c2n[nH]c3ccc(-c4c(F)cccc4F)cc23)n1` (single isomer, unassigned) [Example 395], the pIC50 in assay [2] is 8.22; in assay [3], 8.05; in the assay with KMS-Cell, 5.00.
The corresponding values for `Fc1cccc(F)c1-c1ccc2[nH]nc(-c3cncc(OC4C=CCNC4)n3)c2c1` (single isomer, unassigned) [Example 427] are 7.89, 7.43 and below 4.80.
On the same counts, the results for `O=C(NC1CC1)c1cccc(-c2ccc3[nH]nc(-c4cncc(O[C@H]5CNCCC56CC6)n4)c3c2)c1` [Example 247, 3-(3-(6-((4R)-6-azaspiro[25]oct-4-yloxy)-2-pyrazinyl)-1H-indazol-5-yl)-N-cyclopropylbenzamide] are 8.40, 8.40 and 5.37.
The corresponding values for `CC1CNCC(Oc2nc(O)cc(-c3n[nH]c4ccc(-c5c(F)cccc5F)cc34)n2)C1` (single isomer, unassigned) [Example 569] are 9.00, 9.00 and 6.55.
`CC(c1ccc2[nH]nc(-c3cncc(O[C@H]4CNCCC45CC5)n3)c2c1)C(F)(F)F` (stereo partly drawn) [Example 258, 3-(6-((4R)-6-azaspiro[25]oct-4-yloxy)-2-pyrazinyl)-5-(2,2,2-trifluoro-1-methylethyl)-1H-indazole]: the pIC50 in assay [2] was 8.05; in assay [3], 8.22; with KMS-Cell, 5.50.
For the compound `Clc1ccccc1-c1ccc2[nH]nc(-c3cncc(O[C@H]4CNCCC45CC5)n3)c2c1` [Example 406], the pIC50 in assay [1] was 6.34; in assay [2], 8.70; in assay [3], 9.00; in the assay with KMS-Cell, 5.63; in assay [4], 5.28.
With `CC(O)c1cccc(-c2ccc3[nH]cc(-c4cncc(O[C@@H]5CCCNC5)n4)c3c2)c1` (mixture of isomers) [Example 359], the pIC50 in assay [2] is 8.05; in assay [3] it was 7.68; in the assay with KMS-Cell it was 5.32.
On the same counts, the results for `c1coc(-c2ccc3[nH]nc(-c4cncc(N[C@@H]5CCCNC5)n4)c3c2)n1` [Example 541] are 8.70, 7.62 and 5.22.
On the same counts, the results for `CC[C@@H]1CCNC[C@H]1Oc1cncc(-c2n[nH]c3ccc(-c4c(F)cccc4F)cc23)n1` [Example 397] are 7.70, 6.84 and 4.84.
On the same counts, the results for `c1coc(-c2ccc3[nH]cc(-c4cncc(N[C@@H]5CCCNC5)n4)c3c2)n1` [Example 542] are 8.70, 7.62 and 4.80.
With `N#Cc1ccncc1-c1ccc2[nH]nc(-c3cncc(O[C@H]4CNCCC45CC5)n3)c2c1` [Example 411], the pIC50 in assay [2] was 8.40; in assay [3], 7.92; in the assay with KMS-Cell, 5.92.
As to `CC1CCNCC1Oc1cncc(-c2n[nH]c3ccc(-c4c(F)cccc4F)cc23)n1` (single isomer, unassigned) [Example 424], the pIC50 is 6.36 in assay [1]; 9.00 in assay [2]; 8.40 in assay [3]; 5.20 in the assay on KMS-Cell; 5.61 in assay [4].
Take `O=c1cc(-c2n[nH]c3ccc(-c4c(F)cccc4F)cc23)nc(N[C@@H]2CCCNC2)[nH]1` [Example 282, (R)-6-(5-(2,6-difluorophenyl)-1H-indazol-3-yl)-2-(piperidin-3-ylamino)pyrimidin-4(3H)-one]: the pIC50 in assay [1] was 5.93; in the assay on KMS-Cell it was 5.58; in assay [4], below 5.00.
Take `c1cc2[nH]nc(-c3cncc(O[C@H]4CNCCC45CC5)n3)c2cc1C1CCCC1` [Example 447]: the values for the pIC50 (in assay [2]; in assay [3]; in the assay on KMS-Cell) were 8.40, 8.40 and 5.50, respectively.
On to `CC(c1ccc2[nH]nc(-c3cncc(O[C@H]4CNCCC45CC5)n3)c2c1)C(F)(F)F` (single isomer, unassigned) [Example 259], for which the pIC50 in assay [2] was 7.89; in assay [3], 8.22; with KMS-Cell, 5.55.
For the compound `N#Cc1ccccc1-c1ccc2[nH]nc(-c3cncc(O[C@H]4CNCCC45CC5)n3)c2c1` [Example 408], the pIC50 was 9.00 in assay [2], 9.00 in assay [3] and 5.89 with KMS-Cell.
For `CS(=O)(=O)c1cc(F)c(-c2ccc3[nH]nc(-c4cncc(O[C@H]5CNCCC56CC6)n4)c3c2)c(F)c1` [Example 467], the figures for the pIC50 (in assay [2]; in assay [3]; in the assay on KMS-Cell) were 8.52, 8.52 and 6.26, respectively.
With `Fc1cccc(F)c1-c1ccc2[nH]cc(-c3cncc(OC4CNCCC45CC5)n3)c2c1` (single isomer, unassigned) [Example 438], the figures for the pIC50 (in assay [2]; in assay [3]; in the assay with KMS-Cell) were 9.00, 8.70 and 4.93, respectively.
The corresponding values for `c1cc2[nH]nc(-c3cncc(O[C@H]4CNCCC45CC5)n3)c2cc1C1CC1` [Example 446] are 8.52, 8.30 and 5.76.
The corresponding values for `c1cc(-c2ccc3[nH]cc(-c4cncc(O[C@@H]5CCCNC5)n4)c3c2)cc(-c2cc[nH]n2)c1` [Example 351] are 7.70, 6.75 and below 4.50.
On the same counts, the results for `COC(=O)c1ccc2[nH]nc(-c3cncc(O[C@H]4CNCCC45CC5)n3)c2c1` [Example 265, methyl 3-(6-((4R)-6-azaspiro[25]oct-4-yloxy)-2-pyrazinyl)-1H-indazole-5-carboxylate bis(2,2,2-trifluoroacetate)] are 8.05, 7.46 and 5.24.
On to `c1cc(-c2ccc3[nH]cc(-c4cncc(O[C@@H]5CCCNC5)n4)c3c2)cc(-c2ccno2)c1` [Example 356], for which the pIC50 in assay [2] was 8.22; in assay [3], 7.39; in the assay with KMS-Cell it was 4.90.
On the same counts, the results for `O=C(O)c1ccc2[nH]nc(-c3cncc(N[C@@H]4CCCNC4)n3)c2c1` [Example 495] are 7.15, 6.80 and below 4.80.
On the same counts, the results for `O=c1cc(-c2n[nH]c3ccc(-c4c(F)cccc4F)cc23)nc(O[C@@H]2CCCNC2)[nH]1` [Example 529] are 8.70, 8.70 and 5.58.
With `CC(c1ccc2[nH]nc(-c3cncc(O[C@H]4CNCCC45CC5)n3)c2c1)C(F)(F)F` (single isomer, unassigned) [Example 260], the pIC50 in assay [2] was 8.05; in assay [3], 8.30; in the assay with KMS-Cell it was 5.66.
The corresponding values for `CC1CNCC(Oc2cncc(-c3n[nH]c4ccc(-c5c(F)cccc5F)cc34)n2)C1` (single isomer, unassigned) [Example 469] are 8.70, 8.40 and 5.52.
The corresponding values for `CC(C)c1ccc2[nH]nc(-c3cncc(O[C@H]4CNCCC45CC5)n3)c2c1` [Example 253, 3-(6-((4R)-6-azaspiro[2.5]oct-4-yloxy)-2-pyrazinyl)-5-(1-methylethyl)-1H-indazole] are 8.05, 8.05 and 5.25.

Values taken from patent US9090593B2, “Bicyclic compounds as Pim inhibitors” (AMGEN INC., priority 2010, dated 2015).
